One series addresses VEGFR II (KDR kinase) (Homo sapiens, UniProt P35968). The series is described as follows: Inhibition of KDR kinase activity (33P-ATP, poly-(Glu4Tyr) filter assay). To be noted: 10 minutes at room temperature; poly-(Glu4Tyr) substrate. In kind it is biochemical. Here is the method: Solutions Required for the Tests
Stock solution A: 3mM ATP in water pH 7.0 (−70° C.)
Stock solution B: g-33P-ATP 1 mCi/100 μl
Stock solution C: poly-(Glu4Tyr) 10 mg/ml in water
Substrate solvent: 10 mM DTT, 10 mM manganese chloride 100 mM magnesium chloride
Enzyme solution: 120 mM Tris/HCl, pH 7,5,10 μM sodium vanadium oxide
Inhibition of KDR- and FLT-1 kinase activity in the presence of the compounds according to the invention
10 μl of substrate mix [10 μl vol ATP stock solution A+25 μCi g-33P-ATP (ca. 2.5 μl of stock solution B)+30 μl poly-(Glu4Tyr) stock solution C+1.21 ml substrate solvent], 10 μl inhibitor solution [substances corresponding to the dilutions, as a control 3% DMSO in substrate solvent] and 10 μl enzyme solution [11.25 μg enzyme stock solution (KDR or FLT-1 kinase) are diluted at 4° C. in 1.25 ml enzyme solution], are added to a tapering microtitre plate (without protein binding). The mixture is mixed thoroughly and incubated for 10 minutes at room temperature. Subsequently, 10 μl of stop solution (250 mM EDTA, pH 7.0) is added, mixed and 10 μl of the solution transferred to a P 81 phosphocellulose filter. It is subsequently washed several times in 0.1 M phosphoric acid. The filter paper is dried, coated with MeltiLex and measured in a MicroBeta counter.
The IC50 values are determined from the concentration of inhibitor required to inhibit the phosphate incorporation to 50% of the uninhibited incorporation after deducting the reference value (EDTA-stopped reaction).

pIC50: −log10 of the molar value.

VEGFR II (KDR kinase), sequence (P35968 20-1356): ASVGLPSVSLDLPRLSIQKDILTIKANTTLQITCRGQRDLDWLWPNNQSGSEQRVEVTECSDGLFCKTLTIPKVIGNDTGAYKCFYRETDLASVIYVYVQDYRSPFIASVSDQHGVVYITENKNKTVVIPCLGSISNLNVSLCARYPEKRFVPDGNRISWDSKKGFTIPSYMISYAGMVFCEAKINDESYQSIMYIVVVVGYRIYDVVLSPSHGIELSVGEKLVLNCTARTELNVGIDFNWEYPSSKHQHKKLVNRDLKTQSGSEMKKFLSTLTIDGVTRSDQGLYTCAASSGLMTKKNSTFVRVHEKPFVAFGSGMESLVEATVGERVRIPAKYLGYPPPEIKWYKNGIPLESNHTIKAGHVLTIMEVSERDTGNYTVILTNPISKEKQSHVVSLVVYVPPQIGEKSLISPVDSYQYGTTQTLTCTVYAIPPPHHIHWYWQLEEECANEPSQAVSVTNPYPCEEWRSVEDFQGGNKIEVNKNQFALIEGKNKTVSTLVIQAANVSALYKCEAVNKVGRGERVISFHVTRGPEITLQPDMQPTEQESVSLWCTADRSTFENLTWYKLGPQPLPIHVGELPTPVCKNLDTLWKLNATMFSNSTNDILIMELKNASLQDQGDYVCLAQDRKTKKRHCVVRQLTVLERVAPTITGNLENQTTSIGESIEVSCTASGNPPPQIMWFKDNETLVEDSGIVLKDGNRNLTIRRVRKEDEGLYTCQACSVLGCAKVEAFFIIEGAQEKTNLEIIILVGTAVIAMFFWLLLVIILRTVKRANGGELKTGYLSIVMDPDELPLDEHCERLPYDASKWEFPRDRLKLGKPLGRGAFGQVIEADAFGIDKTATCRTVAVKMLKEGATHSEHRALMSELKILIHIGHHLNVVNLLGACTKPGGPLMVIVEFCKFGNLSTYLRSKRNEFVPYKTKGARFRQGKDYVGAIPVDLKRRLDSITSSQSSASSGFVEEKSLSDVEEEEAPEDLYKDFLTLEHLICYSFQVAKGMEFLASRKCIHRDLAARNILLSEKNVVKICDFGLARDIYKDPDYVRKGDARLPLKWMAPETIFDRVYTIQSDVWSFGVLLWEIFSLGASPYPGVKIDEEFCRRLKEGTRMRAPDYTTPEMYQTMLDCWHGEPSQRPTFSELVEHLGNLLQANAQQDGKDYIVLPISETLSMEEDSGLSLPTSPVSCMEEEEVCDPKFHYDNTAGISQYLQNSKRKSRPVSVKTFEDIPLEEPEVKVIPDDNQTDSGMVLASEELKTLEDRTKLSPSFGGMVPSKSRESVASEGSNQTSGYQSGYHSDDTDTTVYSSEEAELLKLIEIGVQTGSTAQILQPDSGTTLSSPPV

Consider `O=C(NC1CCCCCCC1)c1ccccc1NCc1ccncc1` [Example 1.4], for which the melting point (commonly the temperature of the solid-liquid transition) lay in the range of 103 to 104 °C. For the same compound, the pIC50 – broadly, −log10 of the IC50, conventionally taken in molar units – on VEGFR II (KDR kinase) is 7.10.
Turning to `CC(C)(C)CCNC(=O)c1ccccc1NCc1ccncc1` [Example 1.19], on VEGFR II (KDR kinase), the pIC50 is 7.30.
As for `CC(C)(C)[C@H]1CC[C@H](NC(=O)c2ccccc2NCc2ccncc2)CC1` [Example 1.8], the melting point was 118.4 °C. The same compound showed a pIC50 against VEGFR II (KDR kinase) of 7.41.
The like results for `O=C(NCCN1CCCCC1)c1ccccc1NCc1ccncc1` [Example 1.27] were, in that order, 65.2 °C and 6.00.
The compound `CCCCCCCCCCNC(=O)c1ccccc1NCc1ccncc1` [Example 1.14] gave a negative-log IC50 (pIC50) at VEGFR II (KDR kinase) of 6.70.
At VEGFR II (KDR kinase), `CC(C)CC(C)NC(=O)c1ccccc1NCc1ccncc1` (stereo not drawn) [Example 1.23] gave a pIC50 of 6.30.

The values above are taken from patent US20050054692A1, “Azanthranylalkyl and -cycloalkyl amides and their use as VEGF receptor inhibitors” (priority 2000, published 2005).
